Reference: patent publication US20170305992A1, “NOVEL PEPTIDES AND COMBINATION OF PEPTIDES FOR USE IN IMMUNOTHERAPY AGAINST VARIOUS TUMORS” (IMMATICS BIOTECHNOLOGIES GMBH, priority 2015, published 2017)

Each substance was assayed on CD8+ T cells (assay: In vitro T-cell priming assay with aAPCs loaded with peptide/MHC and anti-CD28, pMHC multimer readout (in vitro immunogenicity)). Settings: HLA-A*02 restricted peptides, Table 6B.
Format: cell-based, human
Source text: In order to obtain information regarding the immunogenicity of the TUMAPs of the present invention, the inventors performed investigations using an in vitro T-cell priming assay based on repeated stimulations of CD8+ T cells with artificial antigen presenting cells (aAPCs) loaded with peptide/MHC complexes and anti-CD28 antibody.
In order to perform in vitro stimulations by artificial antigen presenting cells loaded with peptide-MHC complex (pMHC) and anti-CD28 antibody, the inventors first isolated CD8+ T cells from fresh HLA-A*02 leukapheresis products via positive selection using CD8 microbeads (Miltenyi Biotec, Bergisch-Gladbach, Germany) of healthy donors obtained from the University clinics Mannheim, Germany, after informed consent. PBMCs and isolated CD8+ lymphocytes were incubated in T-cell medium (TCM) until use consisting of RPMI-Glutamax (Invitrogen, Karlsruhe, Germany) supplemented with 10% heat inactivated human AB serum (PAN-Biotech, Aidenbach, Germany), 100 U/ml Penicillin/100 μg/ml Streptomycin (Cambrex, Cologne, Germany), 1 mM sodium pyruvate (CC Pro, Oberdorla, Germany), 20 μg/ml Gentamycin (Cambrex). 2.5 ng/ml IL-7 (PromoCell, Heidelberg, Germany) and 10 U/ml IL-2 (Novartis Pharma, Nürnberg, Germany) were also added to the TCM at this step. Generation of pMHC/anti-CD28 coated beads, T-cell stimulations and readout was performed in a highly defined in vitro system using four different pMHC molecules per stimulation condition and 8 different pMHC molecules per readout condition.
The purified co-stimulatory mouse IgG2a anti human CD28 Ab 9.3 (Jung et al., 1987) was chemically biotinylated using Sulfo-N-hydroxysuccinimidobiotin as recommended by the manufacturer (Perbio, Bonn, Germany). Beads used were 5.6 μm diameter streptavidin coated polystyrene particles (Bangs Laboratories, Ill., USA).
pMHC used for positive and negative control stimulations were A*0201/MLA-001 (peptide […] (SEQ ID NO. 289) from modified Melan-A/MART-1) and A*0201/DDX5-001 ([…] from DDX5, SEQ ID NO. 290), respectively.
800.000 beads/200 μl were coated in 96-well plates in the presence of 4×12.5 ng different biotin-pMHC, washed and 600 ng biotin anti-CD28 were added subsequently in a volume of 200 μl. Stimulations were initiated in 96-well plates by co-incubating […] CD8+ T cells with 2×10^5 washed coated beads in 200 μl TCM supplemented with 5 ng/ml IL-12 (PromoCell) for 3 days at 37° C. Half of the medium was then exchanged by fresh TCM supplemented with 80 U/ml IL-2 and incubating was continued for 4 days at 37° C. This stimulation cycle was performed for a total of three times. For the pMHC multimer readout using 8 different pMHC molecules per condition, a two-dimensional combinatorial coding approach was used as previously described (Andersen et al., 2012) with minor modifications encompassing coupling to 5 different fluorochromes. Finally, multimeric analyses were performed by staining the cells with Live/dead near IR dye (Invitrogen, Karlsruhe, Germany), CD8-FITC antibody clone SK1 (BD, Heidelberg, Germany) and fluorescent pMHC multimers. For analysis, a BD LSRII SORP cytometer equipped with appropriate lasers and filters was used. Peptide specific cells were calculated as percentage of total CD8+ cells. Evaluation of multimeric analysis was done using the FlowJo software (Tree Star, Oreg., USA). In vitro priming of specific multimer+CD8+ lymphocytes was detected by comparing to negative control stimulations.
Exemplary flow cytometry results after TUMAP-specific multimer staining for peptides of the invention are shown in FIG. 3 together with corresponding negative controls.
For “253 (KLLAVIHEL; listed as Homo sapiens) [compound 253]”, the “Wells positive [%]” value was “++ (20% - 49% = ++)”. With “255 (FLMKNSDLYGA; listed as Homo sapiens) [compound 255]” the “Wells positive [%]” value was “+ (<20% = +)”. In the case of “260 (ALNESLVEC; listed as Homo sapiens) [compound 260]”, the “Wells positive [%]” value is reported as “+ (<20% = +)”. In the case of “261 (GLAALAVHL; listed as Homo sapiens) [compound 261]”, the “Wells positive [%]” value is reported as “++ (20% - 49% = ++)”. In the case of “48 (KISDFGLATV; listed as Homo sapiens) [compound 48]”, the “Wells positive [%]” value is reported as “++ (20% - 49% = ++)”. With “157 (ILQDGQFLV; listed as Homo sapiens) [compound 157]” the “Wells positive [%]” value was “+ (<20% = +)”. For “236 (KMSELQTYV; listed as Homo sapiens) [compound 236]”, the “Wells positive [%]” value was “+ (<20% = +)”. “92 (RLFEEVLGV; listed as Homo sapiens) [compound 92]” was tested, and the “Wells positive [%]” value was “++ (20% - 49% = ++)”. With “97 (KLFEKSTGL; listed as Homo sapiens) [compound 97]” the “Wells positive [%]” value was “+ (<20% = +)”. For “14 (YTFSGDVQL; listed as Homo sapiens) [compound 14]”, the “Wells positive [%]” value was “+ (<20% = +)”. For “233 (SLFESLEYL; listed as Homo sapiens) [compound 233]”, the “Wells positive [%]” value was “+ (<20% = +)”. “102 (GLYPVTLVGV; listed as Homo sapiens) [compound 102]” was tested, and the “Wells positive [%]” value was “+ (<20% = +)”. In the case of “242 (KLQEEIPVL; listed as Homo sapiens) [compound 242]”, the “Wells positive [%]” value is reported as “+ (<20% = +)”. “121 (ALYVQAPTV; listed as Homo sapiens) [compound 121]” was tested, and the “Wells positive [%]” value was “+ (<20% = +)”. “254 (ALGDKFLLRV; listed as Homo sapiens) [compound 254]” was tested, and the “Wells positive [%]” value was “+ (<20% = +)”. For “50 (ILLSVLHQL; listed as Homo sapiens) [compound 50]”, the “Wells positive [%]” value was “+ (<20% = +)”. “234 (VLLNEILEQV; listed as Homo sapiens) [compound 234]” was tested, and the “Wells positive [%]” value was “++ (20% - 49% = ++)”. For “246 (ALAGIVTNV; listed as Homo sapiens) [compound 246]”, the “Wells positive [%]” value was “+ (<20% = +)”. With “101 (SLLEVNEASSV; listed as Homo sapiens) [compound 101]” the “Wells positive [%]” value was “+ (<20% = +)”. For “9 (SLITGQDLLSV; listed as Homo sapiens) [compound 9]”, the “Wells positive [%]” value was “+ (<20% = +)”. “251 (LLWGNLPEI; listed as Homo sapiens) [compound 251]” was tested, and the “Wells positive [%]” value was “++ (20% - 49% = ++)”. In the case of “29 (KMISAIPTL; listed as Homo sapiens) [compound 29]”, the “Wells positive [%]” value is reported as “+ (<20% = +)”. With “275 (AVPPPPSSV; listed as Homo sapiens) [compound 275]” the “Wells positive [%]” value was “++ (20% - 49% = ++)”. “89 (SLAETIFIV; listed as Homo sapiens) [compound 89]” was tested, and the “Wells positive [%]” value was “+ (<20% = +)”. “66 (AMFPDTIPRV; listed as Homo sapiens) [compound 66]” was tested, and the “Wells positive [%]” value was “+ (<20% = +)”. “264 (TLHDQVHLL; listed as Homo sapiens) [compound 264]” was tested, and the “Wells positive [%]” value was “+ (<20% = +)”. In the case of “17 (GLLPSAESIKL; listed as Homo sapiens) [compound 17]”, the “Wells positive [%]” value is reported as “+ (<20% = +)”. “267 (YLLDMPLWYL; listed as Homo sapiens) [compound 267]” was tested, and the “Wells positive [%]” value was “+ (<20% = +)”. For “248 (VLMQDSRLYL; listed as Homo sapiens) [compound 248]”, the “Wells positive [%]” value was “++ (20% - 49% = ++)”. For “27 (GLLGKVTSV; listed as Homo sapiens) [compound 27]”, the “Wells positive [%]” value was “+ (<20% = +)”. For “166 (LLGDSSFFL; listed as Homo sapiens) [compound 166]”, the “Wells positive [%]” value was “++ (20% - 49% = ++)”. “11 (LLDPKTIFL; listed as Homo sapiens) [compound 11]” was tested, and the “Wells positive [%]” value was “++ (20% - 49% = ++)”. With “117 (TLLEGISRA; listed as Homo sapiens) [compound 117]” the “Wells positive [%]” value was “++ (20% - 49% = ++)”. With “4 (VLFGELPAL; listed as Homo sapiens) [compound 4]” the “Wells positive [%]” value was “+ (<20% = +)”. In the case of “263 (SIIEYLPTL; listed as Homo sapiens) [compound 263]”, the “Wells positive [%]” value is reported as “+ (<20% = +)”. “35 (VIIKGLEEI; listed as Homo sapiens) [compound 35]” was tested, and the “Wells positive [%]” value was “+ (<20% = +)”. For “257 (KLIDHQGLYL; listed as Homo sapiens) [compound 257]”, the “Wells positive [%]” value was “+ (<20% = +)”. With “7 (ALLQALMEL; listed as Homo sapiens) [compound 7]” the “Wells positive [%]” value was “++ (20% - 49% = ++)”. With “77 (ALYGNVQQV; listed as Homo sapiens) [compound 77]” the “Wells positive [%]” value was “+ (<20% = +)”.

Same assay, conditions: percentage of positive donors; HLA class I peptides, Table 6A
For “288 (SLYKGLLSV; listed as Homo sapiens) [compound 288]”, the “in vitro immunogenicity: donors” value was “++++ (> = 70% = ++++)”. With “287 (KIQEILTQV; listed as Homo sapiens) [compound 287]” the “in vitro immunogenicity: donors” value was “+++ (50% - 69% = +++)”.

Same assay, conditions: percentage of positive wells; HLA class I peptides, Table 6A
For “288 (SLYKGLLSV; listed as Homo sapiens) [compound 288]”, the “in vitro immunogenicity: wells” value was “++ (21% - 49% = ++)”. With “287 (KIQEILTQV; listed as Homo sapiens) [compound 287]” the “in vitro immunogenicity: wells” value was “+ (<20% = +)”.
